Earlier results, collected in patent publication US20080125428A1, “Cancer Treatment Method” (priority 2004, published 2008).

System: tumor cells overexpressing EGFR or erbB2
Conditions: Rusnak et al., 2001b, Xia et al., 2002

Compound: CS(=O)(=O)CCNCc1ccc(-c2ccc3ncnc(Nc4ccc(OCc5cccc(F)c5)c(Cl)c4)c3c2)o1 [GW572016, N-{3-chloro-4-[(3-fluorobenzyl)oxy]phenyl}-6-[5-({[2-(methanesulphonyl)ethyl]amino}methyl)-2-furyl]-4-quinazolinamine]
- kinase inhibition in human xenograft studies: dose-dependent kinase inhibition
- selectivity for tumor cells overexpressing EGFR or erbB2 (human xenograft studies): selectively inhibits tumor cells overexpressing EGFR or erbB2
